According to patent publication US9273043B2, “TRPV1 antagonists including dihydroxy substituent and uses thereof” (Purdue Pharma L.P., priority 2011, dated 2016):

Assays:
[1] = molecular target: T1, human TRPV1 (Homo sapiens (Human), UniProt Q8NER1); test: Human TRPV1 heat-based assay, hTRPV1/CHO cells (hHeat-CHO); format: cell-based; conditions: temperature ramp 25 to 45 °C, mean ± SEM
Description: Human TRPV1 Heat-based Assay:
CHO cells stably expressing human TRPV1 (hTRPV1) were used. Functional assessment of heat-induced activation of hTRPV1 was carried out in a cell-based Ca^2+ flux assay using ABI7500 Fast Real-Time PCR System as described in Reubish et al., “Functional assessment of temperature-gated ion-channel activity using a real-time PCR machine,” www.BioTechniques.com 47(3):iii-ix (2009), which is hereby incorporated by reference. Briefly, hTRPV1/CHO cells were cultured in growth media in a tissue culture dish at 37° C. in a CO2 incubator. On the day of the assay, culture media were removed and the cells were then detached using 0.05% trypsin at 37° C. with 5% CO2, for 90 s. The detached cells were centrifuged (1000 rpm, 4 min) to remove trypsin-containing supernatant and resuspended in assay buffer (115 mM NaCl, 5.4 mM KCl, 0.8 mM MgCl2.6H2O, 1.8 mM CaCl2.2H2O, 13.8 mM D-glucose, and 20 mM HEPES). Then, the cells were loaded with 5 μM Fluo-4, a Ca^2+ reporter dye, in the presence of 2.5 mM probenecid at 37° C. with 5% CO2, for 45 min. Thereafter, the cells were washed twice with measuring buffer (assay buffer supplemented with 0.1% BSA and 3.2 mM CaCl2) then transferred to a Fast 96-well Reaction Plate (0.1 mL) (Part no. 4346907, MICROAMP, Applied Biosystems, Foster City, Calif.). The cell density was 100,000 cells/24 μL/well. A solution of the compound under test (6 μL/well) was added into each well of the 96-well plate. Thus, the reaction volume per well was 30 μL.
The plates were then placed inside an ABI7500 Fast Real-Time PCR instrument (Applied Biosystems) to read fluorescence at different temperatures using 7500 software, version 2.0.2 (Applied Biosystems). The initial temperature was set at 25° C. for 1 min. followed by a temperature ramp to 45° C. in 100 s to deliver heat to cells. [Ca^2+], response of hTRPV1/CHO cells to heat was determined as: [fluorescence read at 45° C.−fluorescence read at 25° C.].
Compound concentration response curves and IC50 values were analyzed using GraphPad Prism 4 software (GraphPad Software, La Jolla, Calif.).
The IC50 data provided in Table 6 are shown as mean±standard error of the mean; the number of trials conducted for each assay is shown in parentheses except for only a single trial where no number of trials is shown in parentheses.

[2] = In vivo assay of body temperature increase (rectal body temperature); design: species or system rat; conditions: rats, oral, 10 mL/kg of 1 mg/mL in 0.5% methylcellulose; greatest ΔTb versus vehicle control at 0.5, 1 or 2 hrs
Description: Hyperthermia or undesirable elevation in animal body temperature is known to be an undesirable side-effect accompanying the administration of certain TRPV1 antagonists (Gavva, “Body-temperature maintenance as the predominant function of the vanilloid receptor TRPV1,” Trends Pharmacol. Sci. 29(11):550-557 (2008)).
Test Animals: Selection of rats (Crl/SD rats, 7 weeks, male) was based on rectal body temperature measured during the morning of the day of dosing as described below. In addition, to minimize spontaneous, stress-induced increases in body temperature, rats were acclimated in advance to both the rectal measurement procedure and to being handled and dosed. All lodging and testing took place in animal care laboratories with constant room temperature and humidity. The rats were free to move and ingest food and water throughout. Each rat was coded with a colored line on the tail, housed in a separate cage, and permitted the normal range of movement. Immediately before each body temperature measurement, a rat was transferred to a measurement cage. To reduce stress which could influence its body temperature, each rat was covered with towels during the measurement. A thermistor probe was then carefully inserted into the rectum of each rat and left in place until the temperature reading on the digital display had stabilized; this value was recorded.
Assay: On the day before dosing, rectal body temperature was measured at 9:00, 10:00, 11:00, 12:30, 13:30, 14:30, and 15:30 o'clock to familiarize the rats with the measurement procedure prior to administration of the test or control treatments. The rats were also dosed by oral gavage without vehicle at 12:30 o'clock to acclimate and familiarize them with the handling and dosing procedure.
On the day of dosing, only rats with rectal body temperatures within the range of from 37.0° C. to 37.7° C. were selected for study. Rectal body temperatures were measured at 9:00, 10:00, and 11:00 o'clock. Rats were excluded from the study if either their rectal body temperature was over 37.9° C. at 10:00 o'clock or was outside the range of from 37.0° C. to 37.7° C. at 11:00 o'clock. The selected rats were divided into several groups based on their rectal body temperatures at 11:00 o'clock. Rectal body temperatures of the selected rats were measured again at 12:30 o'clock and any rat with a rectal body temperature of 38.0° C. or greater was also excluded from the study.
Following assignment to either a test or control group, a test compound or a control was administered to the rats. Each test compound was dissolved in a vehicle of 0.5% aqueous methylcellulose solution and the final concentration of the test compound was adjusted to 1 mg/mL. Each test compound was orally administered once at a dose of 10 mL/kg. The same volume of the control (vehicle only) was administered once to the control group. Rectal body temperatures were measured at the following time points: 0.5, 1, and 2 hrs after administration.
The body temperature increase (ΔTb) for each test compound was calculated by subtracting, at each time point, the average temperature of the control group from the average temperature of the group administered that test compound. The greatest ΔTb obtained for each test compound at any of the time points is shown in Table 11 below, along with the ΔTb of the control.

[3] = molecular target: T1, human TRPV1; test: Capsaicin-based assay, Protocol 2, TRPV1/CHO cells (hCAP-CHO), Fluo-4 FLIPR; format: cell-based; conditions: 100 nM capsaicin, mean ± SEM
Description: The TRPV1/CHO cell line was generated as described below. […] The resulting PCR products were purified from agarose gels using Gel Band Purification Kit (GE Healthcare Bioscience) and were subcloned into pCR-Blunt vector (Invitrogen). The cloned cDNA was fully sequenced using a fluorescent dye-terminator reagent (BigDye Terminator ver3.1 Cycle Sequencing Kit, Applied Biosystems) and ABI Prism 3100 genetic analyzer (Applied Biosystems). The pCR-Blunt vector containing the hTRPV1 cDNA was subjected to restriction digestion with EcoR1. The restriction fragment was subcloned into expression vector pcDNA3.1(-) (Invitrogen) and named pcDNA3.1(-)-hVR1 plasmid. The sequence of the cDNA encoding TRPV1 is available at GenBank accession number AJ277028. […] The cells were transfected with the pcDNA3.1(-)-hVR1 plasmid using FuGENE6 (Roche) according to the manufacturer's protocol. 24 hr after transfection, neomycin-resistant cells were selected using 1 mg/mL G418 (Nacalai Tesque). […] The cells expressing hTRPV1 were cultured in the growth medium supplemented with 1 mg/mL G418. […] Capsaicin-based Assay: […] Subsequently, the cells were loaded by incubation in 0.1 mL of wash buffer containing Fluo-4 at 3 μM final concentration. After 1 hour, the cells were washed twice with 0.2 mL wash buffer and resuspended in 0.1 mL wash buffer. The plates were then transferred to a Fluorescence Imaging Plate Reader (Molecular Devices). Fluorescence intensity was monitored for 15 seconds to establish a baseline. […] The final concentration of the compound was adjusted to range from 100 μM to 1.5625 μM. […] Data were collected over the entire time course and analyzed using Excel and the curve-fitting formula GraphPad Prism.

[4] = molecular target: T1, human TRPV1; test: pH-based assay, Protocol 2, TRPV1/CHO cells (hpH-CHO), Fura-2 Ca2+ influx; format: cell-based; conditions: pH 5.0-5.1 (H2SO4), mean ± SEM
Description: For Protocol 2, a Chinese Hamster Ovary cell line (CHO) that has been engineered to constitutively express human recombinant TRPV1 was used (TRPV1/CHO cells). The TRPV1/CHO cell line was generated as described below.
TRPV1/CHO cells were seeded in the 96-well clear-bottom black-wall plate (Nunc) at densities of 1-2×10^4 cells/well and grown in 100 μL of culture medium (alpha-MEM supplemented with 10% FBS, 20 mM HEPES, 1 mg/mL geneticin and 1% antibiotic-antimycotic mixed stock solution) for 1-2 days before the experiment.
(1) Culture medium was removed using an 8-channel-pipette (Rainin, USA) from the 96-well plate and the wells were refilled with 100 μL of loading buffer (20 mM HEPES, 115 mM NaCl, 5.4 mM KCl, 0.8 mM MgCl2, 1.8 mM CaCl2, 13.8 mM D-glucose, 2.5 mM probenecid, pH 7.4) containing 5 μM Fura-2 AM (Dojin, Japan).
(2) The 96-well plate was incubated at 37° C. for 45 min.
(3) The loading buffer was removed from each well. The cells were subsequently washed twice with 150 μL of measuring buffer (20 mM HEPES, 115 mM NaCl, 5.4 mM KCl, 0.8 mM MgCl2, 5.0 mM CaCl2, 13.8 mM D-glucose, 0.1% BSA, pH 7.4) (no probenecid). The wells were then refilled with 80 μL of measuring buffer.
(4) After an incubation at 4° C. for 15 min, the 96-well plate was transferred to a model FDSS-3000 plate reader apparatus (Hamamatsu Photonics K.K., Japan).
(5) The Fura-2 fluorescent intensity was monitored at a wavelength of 340 nm and at 380 nm, respectively, at a rate of 0.5 Hz for a total of 240 seconds. After 16 time points (32 sec) of baseline detection, 20 μL of agonist solution was added to each well. The final volume was 100 μL/well.
(6) Fluorescence intensity ratio refers to the fluorescence intensity at 340 nm over the fluorescence intensity at 380 nm at a particular time point. The baseline was set as the average of the fluorescent intensity ratios for the first 16 time points before the addition of agonist solution. The maximum response was the highest fluorescent intensity ratio during the 60 time points following addition of agonist solution.
(7) Maximal signal ratios from each well were calculated as output data using the FDSS-3000 analysis program. Data were analyzed using Excel (Microsoft) and XLfit (idbs) software.
In an “agonist plate,” two different agonist solutions with different H2SO4 concentrations were used for the pH assay (see, e.g., FIG. 3A of U.S. Patent Application Publication No. US 2009/0170868 A1). For the first half of a 96-well plate one agonist solution was used; for the second half the other agonist solution was used. The agonist solutions were obtained by diluting sulfuric acid (1M H2SO4) with measuring buffer. The concentrations for the two agonist solutions were determined as described above in Section 2 of Protocol 2.
The sulfuric acid concentrations between the two agonist solutions differed by 0.5 mM. In the experiment described in Section 2 of Protocol 2, the sulfuric acid concentrations in the agonist solutions were determined to be 16 mM and 16.5 mM, respectively. After 1:4 dilution of the agonist solutions, the final sulfuric acid concentration was 3.2 mM and 3.3 mM, respectively. The resulting pH value for the pH assay was 5.0 to 5.1.
Test compounds were dissolved in DMSO to yield 1 mM stock solutions. The stock solutions were further diluted using DMSO in […] serial dilution steps with 6 points (1000, 250, 62.5, 15.625, 3.9062, and 0.977 μM). The thereby-obtained solutions were further diluted in measuring buffer (1:100) as 10× stock serial dilutions with a DMSO concentration of 1%. 10 μL of a 10× stock was added into each well of an “antagonist plate” (see step 3.3.(4) below). Thus, the final concentrations of antagonists was as follows: 0.977, 3.906, 15.63, 62.5, 250, and 1000 nM containing 0.1% DMSO (see, e.g., FIG. 3B of U.S. Patent Application Publication No. US 2009/0170868 A1).
Steps (1) and (2) of this Assay were the same as steps 2.2.(1) and 2.2.(2), respectively, of Protocol 2. […]

T1 sequence (Q8NER1 whole entry, looked up): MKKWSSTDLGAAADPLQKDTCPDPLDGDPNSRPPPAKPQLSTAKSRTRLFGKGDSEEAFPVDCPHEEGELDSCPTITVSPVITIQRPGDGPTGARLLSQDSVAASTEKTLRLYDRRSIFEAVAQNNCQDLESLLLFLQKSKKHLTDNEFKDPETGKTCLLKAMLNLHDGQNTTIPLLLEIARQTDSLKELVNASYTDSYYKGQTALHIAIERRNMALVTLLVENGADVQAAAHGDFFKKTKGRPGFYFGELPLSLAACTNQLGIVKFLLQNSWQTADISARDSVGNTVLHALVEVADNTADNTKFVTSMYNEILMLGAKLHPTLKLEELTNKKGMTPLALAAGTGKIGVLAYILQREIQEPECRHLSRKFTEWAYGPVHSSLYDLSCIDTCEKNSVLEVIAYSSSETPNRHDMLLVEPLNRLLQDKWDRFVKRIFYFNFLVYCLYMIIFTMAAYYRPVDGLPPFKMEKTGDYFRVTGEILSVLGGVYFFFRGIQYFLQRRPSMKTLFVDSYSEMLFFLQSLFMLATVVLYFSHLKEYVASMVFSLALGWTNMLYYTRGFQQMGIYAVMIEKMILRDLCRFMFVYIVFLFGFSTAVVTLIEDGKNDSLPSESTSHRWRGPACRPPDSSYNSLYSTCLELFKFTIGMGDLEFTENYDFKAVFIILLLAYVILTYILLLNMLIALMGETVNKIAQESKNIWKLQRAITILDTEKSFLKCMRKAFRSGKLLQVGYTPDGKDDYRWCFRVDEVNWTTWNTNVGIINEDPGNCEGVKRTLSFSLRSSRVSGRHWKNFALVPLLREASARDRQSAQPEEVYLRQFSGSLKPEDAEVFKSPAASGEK

Compound | IC50 [1] | ΔTb, body temperature increase [2] | IC50 [3] | IC50 [4]
C[C@H](O)[C@@H](O)c1cnc(N2CCN(C(=O)Nc3nc4ccc(F)cc4s3)[C@@H](C)C2)c(F)c1 [BB, (S)-4-{5-[(1S,2S)-1,2-dihydroxypropyl]-3-fluoropyridin-2-yl}-N-(6-fluorobenzo[d]thiazol-2-yl)-2-methylpiperazine-1-carboxamide] | 490 nM | 0.5 °C | 63.7 ± 13.4 nM | –
C[C@H](O)[C@@H](O)c1cnc(N2CCN(C(=O)Nc3nc4cc(F)ccc4s3)C[C@H]2C)c(F)c1 [B155(j), (R)-4-{5-[(1S,2S)-1,2-dihydroxypropyl]-3-fluoropyridin-2-yl}-N-(5-fluorobenzo[d]thiazol-2-yl)-3-methylpiperazine-1-carboxamide] | – | – | 344 ± 116 nM | 439 ± 71 nM
C[C@@H]1CN(C(=O)Nc2nc3ccccc3s2)CCN1c1ncc([C@H](O)CO)cc1F [A122(b), (R)—N-(benzo[d]thiazol-2-yl)-4-(5-((S)-1,2-dihydroxyethyl)-3-fluoropyridin-2-yl)-3-methylpiperazine-1-carboxamide] | – | – | 444 ± 79 nM | 670 ± 94 nM

Continued by falling IC50 [3], values first:

IC50 [1] | ΔTb, body temperature increase [2] | IC50 [3] | IC50 [4] | Compound
– | – | 586 ± 78 nM | 1720 nM | C[C@H](O)[C@@H](O)c1cnc(N2CCN(C(=O)Nc3nc4ccccc4s3)C[C@H]2C)c(F)c1 [B122(j), (R)—N-(benzo[d]thiazol-2-yl)-4-{5-[(1S,2S)-1,2-dihydroxypropyl]-3-fluoropyridin-2-yl}-3-methylpiperazine-1-carboxamide]
– | – | 171 ± 1 nM | 211 ± 50 nM | C[C@@H](O)[C@H](O)c1cnc(N2CCN(C(=O)Nc3nc4ccc(F)cc4s3)C[C@@H]2C)c(F)c1 [B125(p), (S)-4-Z{5-[(1R,2R)-1,2-dihydroxypropyl]-3-fluoropyridin-2-yl}-N-(5-fluorobenzo[d]thiazol-2-yl)-3-methylpiperazine-1-carboxamide]
